# In ChEMBL document CHEMBL6120942 (J Med Chem, 2024):
# Active and inactive are the calls of the source. The calls are words filed in the database; no cut-off is given here.
# Assays:
# Integrin alpha-V/beta-6 = Integrin alpha-V/beta-6 (Homo sapiens, UniProt P06756+P18564); test: Binding affinity to Integrin alphaVbeta6 (unknown origin); type: protein-complex assay
# [1] = octanol/water, pH 7.4
# Description: (§1) Distribution coefficient, logD of compound at pH 7.4 by HPLC analysis
# [2] = dog, mdck-mdr1, 1 h
# Description: (§2) Permeability across apical to basolateral side in dog MDCK-MDR1 cells measured for 60 mins by LC-MS/MS analysis
# Integrin alpha-V/beta-1 = Integrin alpha-V/beta-1 (Homo sapiens, UniProt P05556+P06756); test: Binding affinity to Integrin alphaVbeta1 (unknown origin); type: protein-complex assay
# Integrin alpha-V/beta-3 = Integrin alpha-V/beta-3 (Homo sapiens, UniProt P05106+P06756); test: Binding affinity to Integrin alphaVbeta3 (unknown origin); type: protein-complex assay
# [3] = Kinetic solubility of compound; type: physicochemical; conditions: read-out: Kinetic_solubility
# [4] = Permeability across apical to basolateral side in MDCK cells; type: ADME, cell-based, Canis lupus familiaris; conditions: dog, read-out: permeability
# [5] = Metabolic stability in human microsome assessed as clearance measured upto 60 mins by LC-MS/MS analysis; type: ADME; conditions: microsomes, 1 h
# [6] = Metabolic stability in human Hepatocyte assessed as clearance measured upto 60 mins by LC-MS/MS analysis; type: ADME, cell-based; conditions: hepatocytes, 1 h
# [7] = Metabolic stability in Wistar rat liver Microsome assessed as clearance measured upto 60 mins by LC-MS/MS analysis; type: ADME; conditions: microsomes, 1 h
# [8] = Metabolic stability in Wistar rat Hepatocyte assessed as clearance measured upto 60 mins by LC-MS/MS analysis; type: ADME, cell-based; conditions: hepatocytes, 1 h
# [9] = Unbound clearance in male Wistar Han rat at 1 mg/kg, po or 1 mg/kg, iv measured upto 24 hrs by LC-MS/MS analysis; type: ADME, organism-based; conditions: in vivo
# [10] = Half life in male Wistar Han rat at 1 mg/kg, iv measured upto 24 hrs by LC-MS/MS analysis; type: ADME, organism-based; conditions: in vivo
# [11] = Volume of distribution at steady state in male Wistar Han rat at 1 mg/kg, po or 1 mg/kg, iv measured upto 24 hrs by LC-MS/MS analysis; type: ADME, organism-based; conditions: in vivo
# [12] = Oral bioavailability in male Wistar Han rat at 1 mg/kg measured upto 24 hrs by LC-MS/MS analysis; type: ADME, organism-based; conditions: in vivo
# [13] = Unbound clearance in Gottingen minipig at 1 mg/kg, po or 1 mg/kg, iv measured upto 24 hrs by LC-MS/MS analysis; type: ADME, organism-based, Sus scrofa; conditions: pig, in vivo
# [14] = Half life in Gottingen minipig at 1 mg/kg, iv measured upto 24 hrs by LC-MS/MS analysis; type: ADME, organism-based, Sus scrofa; conditions: pig, in vivo
# [15] = Volume of distribution at steady state in Gottingen minipig at 1 mg/kg, po or 1 mg/kg, iv measured upto 24 hrs by LC-MS/MS analysis; type: ADME, organism-based, Sus scrofa; conditions: pig, in vivo
# [16] = Oral bioavailability in Gottingen minipig at 1 mg/kg measured upto 24 hrs by LC-MS/MS analysis; type: ADME, organism-based, Sus scrofa; conditions: pig, in vivo
# physchem = conditions: octanol/water, pH 7.4, logD
# Description: as §1
# in vitro = conditions: dog, MDCK-MDR1, permeability
# Description: as §2
# [17] = Volume of distribution at steady state in male Wistar Han rat at 2 mg/kg, po measured upto 24 hrs by LC-MS/MS analysis; type: ADME, organism-based; conditions: in vivo
# [18] = Oral bioavailability in male Wistar Han rat at 2 mg/kg measured upto 24 hrs by LC-MS/MS analysis; type: ADME, organism-based; conditions: in vivo
# [19] = Volume of distribution at steady state in male Beagle dog at 1 mg/kg, po or 1 mg/kg, iv measured upto 24 hrs by LC-MS/MS analysis; type: ADME, organism-based, Canis lupus familiaris; conditions: in vivo
# [20] = Oral bioavailability in male Beagle dog at 1 mg/kg measured upto 24 hrs by LC-MS/MS analysis; type: ADME, organism-based, Canis lupus familiaris; conditions: in vivo
# [21] = AUC in rat at 2 mg/kg, po; type: ADME, organism-based; conditions: in vivo
# Mus musculus [22] = test: Antifibrotic activity against bleomycin-induced mouse model of pulmonary fibrosis at 2 to 10 mg/kg, po; type: functional, organism-based; conditions: dose 2-10 mg/kg
# Mus musculus [23] = test: Antifibrotic activity against bleomycin-induced mouse model of pulmonary fibrosis at 2 to 15 mg/kg, po; type: functional, organism-based; conditions: dose 2-15 mg/kg
# Integrin alpha-V/beta-5 = Integrin alpha-V/beta-5 (Homo sapiens, UniProt P06756+P18084); test: Binding affinity to Integrin alphaVbeta5 (unknown origin); type: protein-complex assay
# Integrin alpha-V/beta-8 = Integrin alpha-V/beta-8 (Homo sapiens, UniProt P06756+P26012); test: Binding affinity to Integrin alphaVbeta8 (unknown origin); type: protein-complex assay
# [24] = target: T1, Voltage-gated inwardly rectifying potassium channel KCNH2 (Homo sapiens, UniProt Q12809); test: Inhibition of hERG by patch clamp assay; type: toxicity
# [25] = target: T1, Voltage-gated inwardly rectifying potassium channel KCNH2; test: Inhibition of hERG by Qpatch clamp assay; type: toxicity
# [26] = Unbound clearance in male Beagle dog at 1 mg/kg, po or 1 mg/kg, iv measured upto 24 hrs by LC-MS/MS analysis; type: ADME, organism-based, Canis lupus familiaris; conditions: in vivo
# [27] = Half life in male Beagle dog at 1 mg/kg, iv measured upto 24 hrs by LC-MS/MS analysis; type: ADME, organism-based, Canis lupus familiaris; conditions: in vivo
# Chain of Integrin alpha-V/beta-6 (P06756 31-889 limits assumed): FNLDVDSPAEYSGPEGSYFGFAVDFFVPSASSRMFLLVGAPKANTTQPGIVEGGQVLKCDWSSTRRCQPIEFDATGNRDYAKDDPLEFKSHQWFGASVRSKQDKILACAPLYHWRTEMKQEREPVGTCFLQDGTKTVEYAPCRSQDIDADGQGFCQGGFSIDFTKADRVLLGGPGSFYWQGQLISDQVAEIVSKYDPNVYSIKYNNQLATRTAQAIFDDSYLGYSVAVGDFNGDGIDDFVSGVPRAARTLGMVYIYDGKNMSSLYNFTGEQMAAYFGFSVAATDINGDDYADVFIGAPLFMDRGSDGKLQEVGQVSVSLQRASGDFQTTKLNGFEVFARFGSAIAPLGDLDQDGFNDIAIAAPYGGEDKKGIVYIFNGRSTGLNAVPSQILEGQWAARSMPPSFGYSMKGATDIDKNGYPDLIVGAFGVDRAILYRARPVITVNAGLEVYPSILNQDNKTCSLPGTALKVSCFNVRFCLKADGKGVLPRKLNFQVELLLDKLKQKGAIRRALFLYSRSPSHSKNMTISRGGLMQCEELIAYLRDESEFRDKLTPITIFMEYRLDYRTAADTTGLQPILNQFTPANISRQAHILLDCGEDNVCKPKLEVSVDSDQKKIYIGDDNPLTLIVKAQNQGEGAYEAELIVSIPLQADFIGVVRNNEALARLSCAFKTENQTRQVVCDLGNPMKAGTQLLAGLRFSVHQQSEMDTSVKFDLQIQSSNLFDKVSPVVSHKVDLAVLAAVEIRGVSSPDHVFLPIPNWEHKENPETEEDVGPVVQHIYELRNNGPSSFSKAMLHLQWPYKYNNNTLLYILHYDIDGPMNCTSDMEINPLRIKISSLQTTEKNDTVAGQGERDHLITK
# Chain of Integrin alpha-V/beta-6 (P06756 891-1048 limits assumed): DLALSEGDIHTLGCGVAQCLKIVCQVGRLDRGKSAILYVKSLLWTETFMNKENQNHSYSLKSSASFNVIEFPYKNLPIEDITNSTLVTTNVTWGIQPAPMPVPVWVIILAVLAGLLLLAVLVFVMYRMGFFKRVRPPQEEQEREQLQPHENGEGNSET
# Chain of Integrin alpha-V/beta-6 (P18564 22-788 limits assumed): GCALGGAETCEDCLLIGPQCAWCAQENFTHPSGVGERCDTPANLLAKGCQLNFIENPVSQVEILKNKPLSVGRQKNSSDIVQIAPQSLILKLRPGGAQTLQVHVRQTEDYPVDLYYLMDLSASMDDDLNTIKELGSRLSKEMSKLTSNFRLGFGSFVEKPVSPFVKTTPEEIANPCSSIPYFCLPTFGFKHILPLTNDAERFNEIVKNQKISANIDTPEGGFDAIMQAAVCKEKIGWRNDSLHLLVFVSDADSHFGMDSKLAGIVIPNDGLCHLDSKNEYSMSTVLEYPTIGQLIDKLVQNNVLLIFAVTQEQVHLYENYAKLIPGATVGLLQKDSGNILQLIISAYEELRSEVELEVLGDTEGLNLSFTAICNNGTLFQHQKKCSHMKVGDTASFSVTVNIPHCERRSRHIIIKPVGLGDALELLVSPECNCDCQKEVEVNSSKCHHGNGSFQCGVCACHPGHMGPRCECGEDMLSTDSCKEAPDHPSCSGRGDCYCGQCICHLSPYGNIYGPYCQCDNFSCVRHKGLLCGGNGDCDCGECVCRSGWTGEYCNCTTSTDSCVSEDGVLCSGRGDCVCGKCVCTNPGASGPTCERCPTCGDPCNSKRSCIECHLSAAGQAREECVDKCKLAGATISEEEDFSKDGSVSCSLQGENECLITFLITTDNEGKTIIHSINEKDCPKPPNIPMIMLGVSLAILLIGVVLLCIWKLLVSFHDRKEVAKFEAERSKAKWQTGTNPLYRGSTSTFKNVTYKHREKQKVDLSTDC
# T1 sequence (Q12809 whole entry): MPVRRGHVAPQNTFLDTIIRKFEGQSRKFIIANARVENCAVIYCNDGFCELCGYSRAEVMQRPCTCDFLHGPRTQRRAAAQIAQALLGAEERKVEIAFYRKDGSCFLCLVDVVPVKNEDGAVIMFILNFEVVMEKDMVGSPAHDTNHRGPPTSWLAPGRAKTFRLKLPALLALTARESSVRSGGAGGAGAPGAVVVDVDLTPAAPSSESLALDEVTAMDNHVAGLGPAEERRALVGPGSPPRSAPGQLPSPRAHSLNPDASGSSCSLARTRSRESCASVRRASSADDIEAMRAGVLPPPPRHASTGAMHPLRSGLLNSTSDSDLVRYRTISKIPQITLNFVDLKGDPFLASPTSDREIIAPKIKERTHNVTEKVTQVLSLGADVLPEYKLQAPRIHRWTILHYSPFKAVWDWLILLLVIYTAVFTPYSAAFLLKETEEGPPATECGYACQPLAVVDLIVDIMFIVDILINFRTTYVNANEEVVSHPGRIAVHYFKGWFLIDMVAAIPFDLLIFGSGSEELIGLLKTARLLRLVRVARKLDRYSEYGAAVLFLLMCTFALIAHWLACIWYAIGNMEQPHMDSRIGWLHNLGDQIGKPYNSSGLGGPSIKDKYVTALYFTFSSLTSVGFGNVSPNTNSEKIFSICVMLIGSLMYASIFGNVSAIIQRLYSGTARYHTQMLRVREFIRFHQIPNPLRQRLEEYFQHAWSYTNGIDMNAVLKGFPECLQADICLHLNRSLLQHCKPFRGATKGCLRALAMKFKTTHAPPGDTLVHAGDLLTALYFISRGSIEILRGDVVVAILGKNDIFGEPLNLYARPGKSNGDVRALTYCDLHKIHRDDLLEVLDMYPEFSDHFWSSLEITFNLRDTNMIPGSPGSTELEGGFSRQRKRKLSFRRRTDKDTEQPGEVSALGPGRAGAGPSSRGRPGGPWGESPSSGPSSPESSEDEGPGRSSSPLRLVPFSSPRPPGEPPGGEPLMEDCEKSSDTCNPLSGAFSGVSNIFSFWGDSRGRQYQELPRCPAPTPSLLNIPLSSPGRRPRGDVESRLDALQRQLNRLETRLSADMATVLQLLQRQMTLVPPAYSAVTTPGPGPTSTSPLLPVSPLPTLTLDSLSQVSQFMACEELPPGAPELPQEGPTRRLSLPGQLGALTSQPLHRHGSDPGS
# Chain of Integrin alpha-V/beta-8 (P06756 31-889 limits assumed): as the sequence (P06756 31-889 limits assumed) above
# Chain of Integrin alpha-V/beta-8 (P06756 891-1048 limits assumed): as the sequence (P06756 891-1048 limits assumed) above
# Chain of Integrin alpha-V/beta-8 (P26012 43-769 limits assumed): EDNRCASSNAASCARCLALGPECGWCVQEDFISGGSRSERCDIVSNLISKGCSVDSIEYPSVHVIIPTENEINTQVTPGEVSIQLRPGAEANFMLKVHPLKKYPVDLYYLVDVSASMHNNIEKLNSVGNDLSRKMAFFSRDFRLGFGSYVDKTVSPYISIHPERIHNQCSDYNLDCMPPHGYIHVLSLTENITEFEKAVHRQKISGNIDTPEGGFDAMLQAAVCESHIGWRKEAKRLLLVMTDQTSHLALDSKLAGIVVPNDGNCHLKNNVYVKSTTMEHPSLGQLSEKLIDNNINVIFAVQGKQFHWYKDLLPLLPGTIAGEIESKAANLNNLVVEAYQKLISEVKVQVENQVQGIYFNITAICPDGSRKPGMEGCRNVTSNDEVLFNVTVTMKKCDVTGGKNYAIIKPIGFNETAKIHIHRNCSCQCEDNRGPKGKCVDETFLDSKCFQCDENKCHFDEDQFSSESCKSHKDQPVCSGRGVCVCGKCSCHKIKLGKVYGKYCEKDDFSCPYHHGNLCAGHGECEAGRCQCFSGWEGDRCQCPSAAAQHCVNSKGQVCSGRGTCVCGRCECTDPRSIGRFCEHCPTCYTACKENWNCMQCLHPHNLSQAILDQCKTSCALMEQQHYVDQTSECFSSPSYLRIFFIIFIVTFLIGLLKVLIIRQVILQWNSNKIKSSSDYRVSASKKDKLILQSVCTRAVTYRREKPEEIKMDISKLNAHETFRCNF
# Chain of Integrin alpha-V/beta-5 (P06756 31-889 limits assumed): as the sequence (P06756 31-889 limits assumed) above
# Chain of Integrin alpha-V/beta-5 (P06756 891-1048 limits assumed): as the sequence (P06756 891-1048 limits assumed) above
# Chain of Integrin alpha-V/beta-5 (P18084 24-799 limits assumed): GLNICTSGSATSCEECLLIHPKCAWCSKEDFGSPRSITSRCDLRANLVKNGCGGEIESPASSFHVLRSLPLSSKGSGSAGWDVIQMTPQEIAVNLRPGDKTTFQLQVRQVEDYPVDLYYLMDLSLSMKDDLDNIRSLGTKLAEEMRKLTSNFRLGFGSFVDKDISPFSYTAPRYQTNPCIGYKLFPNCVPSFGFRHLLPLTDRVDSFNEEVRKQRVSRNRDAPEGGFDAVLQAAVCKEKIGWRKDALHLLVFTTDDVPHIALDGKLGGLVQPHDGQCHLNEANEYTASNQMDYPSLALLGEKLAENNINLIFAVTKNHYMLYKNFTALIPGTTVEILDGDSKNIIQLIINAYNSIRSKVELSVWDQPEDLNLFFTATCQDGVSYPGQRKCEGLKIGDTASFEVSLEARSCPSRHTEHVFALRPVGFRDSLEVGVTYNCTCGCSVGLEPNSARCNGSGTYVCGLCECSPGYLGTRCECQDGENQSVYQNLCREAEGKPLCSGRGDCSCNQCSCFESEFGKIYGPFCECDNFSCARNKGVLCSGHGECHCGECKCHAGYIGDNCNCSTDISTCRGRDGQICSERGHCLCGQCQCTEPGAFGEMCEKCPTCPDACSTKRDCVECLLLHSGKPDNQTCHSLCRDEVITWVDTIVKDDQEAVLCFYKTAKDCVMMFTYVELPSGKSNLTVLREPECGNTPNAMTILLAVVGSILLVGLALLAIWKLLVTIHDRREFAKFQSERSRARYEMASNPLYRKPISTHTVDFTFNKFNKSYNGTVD
Compound,IC50 (Integrin alpha-V/beta-6) [nM],solubility kinetic [3] [µg/mL],Papp A→B [4] [×10⁻⁶ cm/s],CLH [5] [mL/min/g],CL free [9] [mL/min/kg],half-life [10] [h],Vdss [11] [L/kg],bioavailability [12] [%],logD (physchem),Papp A→B at 1 h (in vitro) [×10⁻⁶ cm/s],other results
O=C(O)C[C@H](CN1CC(CCc2ccc3c(n2)NCCC3)CC(F)(F)C1)c1cccc(N2CCOCC2)c1 (stereo in doubt; 3b),79.4,–,–,–,–,–,–,–,–,–,logD [1]: 4.33; permeability [2]: 56 ×10⁻⁶ cm/s
O=C(O)C[C@H](CN1CC[C@@](F)(CCc2ccc3c(n2)NCCC3)C1)c1cccc(O[C@@H]2CCOC2)c1,–,232,7.8,< 0.4,88,3.1,3.3,90,2.76,20.5,IC50 (Integrin alpha-V/beta-1): 158 nM; IC50 (Integrin alpha-V/beta-3): 63.1 nM; CLH [6]: < 0.21 mL/min/g; CLH [7]: < 0.46 mL/min/g; CLH [8]: 1.4 mL/min/g; CL free [13]: 34 mL/min/kg; half-life [14]: 1.7 h; Vdss [15]: 1.5 L/kg; bioavailability [16]: 66%
COCCOc1cccc([C@H](CC(=O)O)CN2CC[C@@](F)(CCc3ccc4c(n3)NCCC4)C2)c1,–,127,8.7,–,–,–,–,–,2.93,14.6,Vdss [17]: 3.6 L/kg; bioavailability [18]: 93%; Vdss [19]: 1.4 L/kg; bioavailability [20]: 104%; Vdss [15]: 0.9 L/kg; bioavailability [16]: 84%; AUC [21]: 779 ng·h/mL; Activity (Mus musculus [22]): Active; Activity (Mus musculus [23]): Active
O=C(O)C[C@H](CN1CC[C@@](F)(CCc2ccc3c(n2)NCCC3)C1)c1cccc(OC2CCOCC2)c1,–,209,12.1,< 0.4,182,3.5,4.9,50,3.18,17.2,IC50 (Integrin alpha-V/beta-5): 31.6 nM; IC50 (Integrin alpha-V/beta-8): 12.6 nM; CLH [6]: < 0.21 mL/min/g; CLH [7]: < 0.46 mL/min/g; CLH [8]: 1.6 mL/min/g
O=C(O)C[C@H](CN1CC(CCc2ccc3c(n2)NCCC3)CC(F)(F)C1)c1cccc(N2CCOCC2)c1 (stereo in doubt; 3a),631,–,–,–,–,–,–,–,3.46,36,–
O=C(O)C[C@H](CN1CCC(F)(F)C(CCc2ccc3c(n2)NCCC3)C1)c1cccc(N2CCOCC2)c1 (stereo in doubt; 2a),2000,–,–,–,–,–,–,–,4.02,37,–
Cc1cc(C)n(-c2cccc([C@H](CC(=O)O)CN3CC[C@@H](CCc4ccc5c(n4)NCCC5)C3)c2)n1.Cl [GSK-3008348],–,–,–,–,189,0.8,2.1,< 2,–,–,CL free [26]: 124 mL/min/kg; half-life [27]: 3.6 h; Vdss [19]: 3.6 L/kg; bioavailability [20]: 30%
COCCOc1cccc([C@H](CC(=O)O)CN2CC[C@](F)(CCc3ccc4c(n3)NCCC4)C2)c1,–,–,1.9,–,–,–,–,–,2.89,–,AUC [21]: 101 ng·h/mL
Cc1cc(C)n(-c2cccc([C@H](CC(=O)O)CN3CC[C@@](F)(CCc4ccc5c(n4)NCCC5)C3)c2)n1,10,262,17.7,< 0.53,–,–,–,–,3.3,33,IC50 (Integrin alpha-V/beta-3): 316 nM; IC50 (Integrin alpha-V/beta-5): 200 nM; IC50 (Integrin alpha-V/beta-8): 20 nM; CLH [6]: < 0.86 mL/min/g; CLH [7]: 0.91 mL/min/g; CLH [8]: 13.75 mL/min/g
O=C(O)C[C@H](CN1CC[C@@H](CCc2ccc3c(n2)NCCC3)C1)c1cccc(N2CCOCC2)c1,–,–,–,–,–,–,–,–,2.27,2.7,–
O=C(O)C[C@H](CN1CC[C@@](F)(CCc2ccc3c(n2)NCCC3)C1)c1cccc(O[C@H]2CCOC2)c1,–,194,7.6,< 0.4,58,2.8,1.9,61,2.84,26,CL free [13]: 26 mL/min/kg; half-life [14]: 3.4 h; Vdss [15]: 1.4 L/kg; bioavailability [16]: 63%

# More lines, main results first:
IC50 (Integrin alpha-V/beta-6) [nM],solubility kinetic [3] [µg/mL],Papp A→B [4] [×10⁻⁶ cm/s],CLH [5] [mL/min/g],CL free [9] [mL/min/kg],half-life [10] [h],Vdss [11] [L/kg],bioavailability [12] [%],logD (physchem),Papp A→B at 1 h (in vitro) [×10⁻⁶ cm/s],Compound,other results
–,–,–,–,–,–,–,–,2.66,9.3,O=C(O)C[C@H](CN1CC[C@](F)(CCc2ccc3c(n2)NCCC3)C1)c1cccc(N2CCOCC2)c1,IC50 [24]: > 10000 nM; IC50 [25]: > 10000 nM
–,258,8.7,< 0.46,206,1.9,4.1,77,2.68,21.8,O=C(O)C[C@H](CN1CC[C@@](F)(CCc2ccc3c(n2)NCCC3)C1)c1cccc(N2CCOCC2)c1,CL free [26]: 18 mL/min/kg; IC50 [24]: > 10000 nM; IC50 [25]: > 10000 nM; CLH [6]: < 0.62 mL/min/g; CLH [7]: < 0.49 mL/min/g; CLH [8]: < 1.04 mL/min/g; half-life [27]: 6.1 h; Vdss [19]: 2.5 L/kg; bioavailability [20]: 74%; CL free [13]: 58 mL/min/kg; half-life [14]: 3 h; Vdss [15]: 2.5 L/kg; bioavailability [16]: 34%
50.1,–,–,–,–,–,–,–,2.68,21.6,O=C(O)C[C@H](CN1CCCC(F)(CCc2ccc3c(n2)NCCC3)C1)c1cccc(N2CCOCC2)c1 (stereo in doubt; 4a),–
200,–,–,–,–,–,–,–,–,–,O=C(O)C[C@H](CN1CCCC(F)(CCc2ccc3c(n2)NCCC3)C1)c1cccc(N2CCOCC2)c1 (stereo in doubt; 4b),permeability [2]: 38 ×10⁻⁶ cm/s
501,–,–,–,–,–,–,–,–,–,O=C(O)C[C@H](CN1CCC(F)(F)C(CCc2ccc3c(n2)NCCC3)C1)c1cccc(N2CCOCC2)c1 (stereo in doubt; 2b),logD [1]: 4.62; permeability [2]: 56 ×10⁻⁶ cm/s
